Source: publication PMC5269379 (Organic letters, 2016)
Entries after “also recorded” stand apart in the source; their conditions may differ.

Key:
[1] = tested on: rabbit red blood cells; assay: Synergistic hemolytic activity in combination with CylLL″; assay type: cell-based; conditions: Figure S6
[2] = tested on: L. lactis 481; assay type: cell-based, Lactococcus lactis; conditions: for combined with CylLL″ MIC: concentration of each component; for combined with CylLL″ MIC / individual MIC: L. lactis 481; for individual MIC: peptide alone
[3] = tested on: Lactococcus lactis HP and L. lactis CNRZ 481; assay: Antimicrobial activity assay; assay type: cell-based; conditions: in combination with CylLL″; Figures S2, S5

Substance | hemolytic activity (in words) [1] | combined with CylLL″ MIC ([2]; combined with CylLL″) [µM] | fold increase of MIC in liquid culture ([2]; combined with CylLL″, liquid culture) [fold] | individual MIC [2] [µM] | antimicrobial activity (in words) [3]
CylLS″-Dhb2Dha (DL-A ring, DL-B ring) [compound 11] | no decrease of hemolytic activity | 1.0 | 10 | >50 | decreased antimicrobial activity; also recorded: markedly smaller zone of growth inhibition
CylLS″-Dhb2Dha (LL-A ring, DL-B ring) [synthetic 12] | – | 0.1 | – | >50 | identical antimicrobial activity
CylLS″-Dhb2Dha [biosynthetic 12] | very similar hemolytic activity | 0.1 | – | >50 | very similar antimicrobial activity
cytolysin L [CylLL″, reference compound] | – | – | – | >50 | –
cytolysin S [CylLS″, reference compound] | very similar hemolytic activity | 0.05 | – | >50 | –
